In one test the test system is TNF-α. Briefly: TNF-α content of cerebral cortex by ELISA, EAE rats. The format is in vivo. The following applies: positive control drug, dose not given. The protocol: (§1) Preparation of rat model and administration: experimental autoimmune encephalomyelitis (EAE) model is an important tool for studying various human demyelinating diseases of nervous system. In the example, the preparation of EAE rat model was performed by multipoint immunizing female Lewis rats subcutaneously at tail root with a homogenate of spinal cord and cerebral gray matter of Guinea pig as well as complete Freund's adjuvant after emulsification. They were intragastrically administered with Epimedium flavanoids for 3 weeks.
Experimental objective: tumor necrosis factor α (TNF-α) is an important inflammatory cytokines, and has promoting effects on inflammatory reactions. This experiment used enzyme linked immunosorbent assay (ELISA) to measure TNF-α content of cerebral cortex in EAE rat model, and observe the effects of Epimedium flavanoids on the content.
Experimental method: rats were anesthetized and sacrificed, fresh brain tissues were was taken, processed to form cerebral cortex homogenate. The operation was performed strictly according to the steps of specification of ELISA kit. Optical density was measured with ELISA at 450 nm. The corresponding TNF-α content was calculated with the measured OD values on standard curve.

Another test concerns nitric oxide (NO). Kind of test: NO content of cerebral cortex, biochemical kit, EAE rats. In kind it is in vivo. Conditions: positive control drug, dose not given. The method, then:
as §1
Experimental objective: nitric-oxide synthase (NOS) catalyzes the generation of nitric oxide (NO). During inflammatory reaction, the activity of induced NOS increases, excess NO are generated and oxygen radicals are generated via oxidation, which may result in damages in nerve cells and myelin sheath. In this experiment, NOS activity and NO content were measured using biochemical kits in cerebral cortex of EAE rat model, and the effects of Epimedium flavanoids on changes thereof were observed. […]

In test [1] the test system is myelinoclasis of spinal cord lumbar intumescentia in EAE rat model. Kind of test: Myelinoclasis of spinal cord lumbar intumescentia, LFB staining, EAE rats. In kind it is in vivo. Conditions: positive control drug, dose not given, scale 0-4. The method, then:
Preparation of rat model and administration: experimental autoimmune encephalomyelitis (EAE) model is an important tool for studying various human demyelinating diseases of nervous system. In the example, the preparation of EAE rat model was performed by multipoint immunizing female Lewis rats subcutaneously at tail root with a homogenate of spinal cord and cerebral gray matter of Guinea pig as well as complete Freund's adjuvant after emulsification. They were intragastrically administered with Epimedium flavanoids for 3 weeks. […]
Experimental method: the rats were anesthetized with 10% chloral hydrate on the 14th day of experiment, fixed by perfusion of 4% paraformaldehyde, spinal cord tissues were taken for making paraffin sections, section thickness 4 μm. (1) Stained with LFB, observed under microscope, and scored according to the following standard: 0 score, absence of myelinoclasis; 1 score, one small range of myelinoclasis; 2 score, 2 or 3 small ranges of myelinoclasis; 3 score, 1 to 2 large ranges of myelinoclasis; 4 score, large ranges of myelinoclasis accumulatively existing in 20% or more of white matter regions. […]

The test system of test [2] is Superoxide dismutase (SOD). Briefly: SOD activity of cerebral cortex, biochemical kit, EAE rats. The format is in vivo. The following applies: positive control drug, dose not given. The protocol: as §1
Experimental objective: the lipid peroxidation between oxygen free radicals and unsaturated fatty acids of cell membranes and organelle membranes results in the damage, degradation, denaturation and dysfunction of membrane phospholipids. Malondialdehyde (MDA) is a metabolic product of lipid peroxidation, and the increase of MDA indicates the enhancement of lipid peroxidation, which may lead to damage of nerve cells and myelin sheath. Superoxide dismutase (SOD) can scavenge superoxide anions and is an important antioxidase in vivo. In this experiment, SOD activity and MDA content of brain tissues in EAE rat model were measured by biochemistry method, and the effects of Epimedium flavanoids on changes thereof were observed. […]

Test [3] deals with experimental autoimmune encephalomyelitis (EAE) rat model. Kind of test: Nervous function damage score in EAE rat model. The format is in vivo, Lewis rats. The following applies: EAE rats, peak of attack; positive control drug, dose not given; scale 0-6. The method, then:
as §1
Nervous function test method: the ethological changes of rats were observed by two experimenters using blind method every day. Nervous function damage scoring standard: 0 score, absence of symptom; 1 score, decrease of tail tension, visible evident slight gait awkward; 2 score, double hind limbs weak, walk difficult; 3 score, double hind limbs paralysis; 4 score, double hind limbs paralysis and fore limbs weak; 5 score, four limbs paralysis; 6 score, near death or died.

The next test deals with CNPase. Kind of test: Cerebral cortex CNPase content by Western blot, EAE rats. The format is in vivo. The following applies: positive control drug, dose not given. The protocol:
as §1
Experimental objective: myelin sheath is formed with prominences of oligodendroglial cells. […] In this experiment, CNPase content of cerebral cortex in EAE rat model was measured by Western blot method, CNPase content of spinal cord lumbar intumescentia was measured by immunohistochemical method; and the effects of Epimedium flavanoids on these contents were observed.
Experimental method: rats were anesthetized and sacrificed, cerebral cortex was taken, total protein was extracted by ice cleavage for making Western blot sample, added with CNPase primary antibody and incubated, added with corresponding secondary antibody, ECL colorated, Kodak film exposed. Pictures were analyzed by Image J software and standardized with β-actin (as internal reference).

Consider `CC(=O)OCC(=O)[C@@]1(O)CC[C@H]2[C@@H]3CCC4=CC(=O)C=C[C@]4(C)[C@H]3C(=O)C[C@@]21C` [prednisone acetate], for which the TNF-α content in the test with TNF-α was 64.29 ± 7.52 pg/mg pro. The NO content in the test with nitric oxide (NO) is recorded as 0.77 ± 0.01 mmol/mg protein. Further, the “Myelinoclasis (LFB staining score)” value in test [1] turned out to be 0.89 ± 0.20. The SOD activity in test [2] was 134.5 ± 5.1 U/mg protein. Moreover, the “Nervous function damage score” value in test [3] was found to be 0.83 ± 0.48. Also, in the test on CNPase, the “CNPase/actin Integration grey level” value amounted to 1.33 ± 0.06.

For the origin of these results see US9050353B2, “Use of icariin and epimedium flavonoids containing icariin to treat diseases associated with myelin sheath lesion” (Xuanwu Hospital of Capital Medical University, priority 2010, dated 2015).
